Results reported in patent US11214803B2, “Modulators of YAP1 expression” (Ionis Pharmaceuticals, Inc., priority 2019, dated 2022).
Strand notation (5' to 3'): a small letter for the sugar, then the base; units joined by * are phosphorothioate-linked, units joined directly phosphodiester-linked; [ ] holds rarer units or linkages, { } end groups; capitals alone tell only the bases. k = constrained ethyl (cEt); [5mC] = 5-methylcytosine; d = 2'-deoxy (DNA)

How the values were obtained:
Assay type in all cases: cell-based, human
NCI H747 cells = experiment: Cell proliferation assay in NCI H747 cells, CellTiter-Glo (Example 31); settings: free uptake, 7 days
Protocol: Modified oligonucleotides described in the studies above were tested at various doses in colorectal adenocarcinoma cell line NCI H747. A control oligonucleotide 792169 was also tested.
(§1) Cultured NCI H747 cells at a density of 3000 cells/well were treated using free uptake with modified oligonucleotides diluted to concentrations described in the tables below. After 7 days, cell proliferation was measured using the luminescent cell viability CellTiter-Glo® 2.0 Assay (Promega). Results are presented in the tables below as percent control of the amount of luminescence in samples treated with modified oligonucleotides relative to untreated control cells (% UTC).

Yap1 mRNA [1] = experiment: Yap1 mRNA in NCI H292 cells, RNA analysis (Example 32); settings: free uptake, approximately 48 hours
Protocol: Modified oligonucleotides described in the studies above were tested at various doses in mucoepidermoid pulmonary carcinoma cell line […]. A control oligonucleotide 792169 was also tested.
(§2) Cultured NCI H292 cells at a density of 5000 cells per well were treated using free uptake with modified oligonucleotides diluted to concentrations described in the tables below. After approximately 48 hours, Yap1 mRNA levels were measured as previously described using the Human Yap1 primer-probe set RTS4814. Yap1 mRNA levels were normalized to actin-beta content, as measured by primer probe set RTS5002. Results are presented in the tables below as percent control of the amount of Yap1 mRNA relative to untreated control cells (% UTC).

Yap1 mRNA [2] = experiment: Yap1 mRNA in BICR-22 cells, RNA analysis (Example 35); settings: free uptake, approximately 48 hours
Protocol: (§3) Modified oligonucleotides described in the studies above were tested at various doses in tongue squamous carcinoma (lymph node metastasis) cell line BICR-22. A control oligonucleotide 792169, described herein above, was also tested.
as §2, with “BICR-22” for “NCI H292”

BICR-22 cells = experiment: Cell proliferation assay in BICR-22 cells, CellTiter-Glo (Example 35); settings: free uptake, approximately 144 hours
Protocol: as §3
as §1, with “BICR-22” for “NCI H747”, “1000” for “3000”, “approximately 144 hours,” for “7 days,”

Yap1 mRNA [3] = experiment: Yap1 mRNA in CAL33 cells, RNA analysis (Example 36); settings: free uptake, approximately 48 hours
Protocol: Modified oligonucleotides described in the studies above were tested at various doses in tongue squamous cell carcinoma line CAL33. A control oligonucleotide 792169, described herein above, was also tested.
as §2, with “CAL33” for “NCI H292”

Detroit-562 cells = experiment: Cell proliferation assay in Detroit-562 cells, CellTiter-Glo (Example 38); settings: free uptake, approximately 144 hours
Protocol: Modified oligonucleotides described in the studies above were tested at various doses in pharynx carcinoma cell line Detroit-562. A control oligonucleotide 792169, described herein above, was also tested.
as §1, with “Detroit-562” for “NCI H747”, “1000” for “3000”, “approximately 144 hours,” for “7 days,”

SCC-4 cells = experiment: Cell proliferation assay in SCC-4 cells, CellTiter-Glo (Example 39); settings: free uptake, approximately 144 hours
Protocol: Modified oligonucleotides described in the studies above were tested at various doses in tongue squamous cell carcinoma cell line SCC 4. A control oligonucleotide 792169, described herein above, was also tested.
as §1, with “SCC-4” for “NCI H747”, “1000” for “3000”, “approximately 144 hours,” for “7 days,”

Yap1 mRNA [4] = experiment: Yap1 mRNA in SNU-899 cells, RNA analysis (Example 43); settings: free uptake, approximately 48 hours
Protocol: Modified oligonucleotides described in the studies above were tested at various doses in laryngeal squamous cell carcinoma cell line SNU-899. A control oligonucleotide 792169, described herein above, was also tested.
as §2, with “SNU-899” for “NCI H292”

Row | Substance | Antiproliferative effect (cell proliferation, luminescence) (NCI H747 cells; 0.04 μM) | Antiproliferative effect (cell proliferation, luminescence) (NCI H747 cells; 0.2 μM) | Antiproliferative effect (cell proliferation, luminescence) (NCI H747 cells; 1 μM) | Antiproliferative effect (cell proliferation, luminescence) (NCI H747 cells; 5 μM) | human Yap1 mRNA expression (Yap1 mRNA [1]; 0.04 μM) | human Yap1 mRNA expression (Yap1 mRNA [1]; 0.2 μM) | human Yap1 mRNA expression (Yap1 mRNA [1]; 1 μM) | human Yap1 mRNA expression (Yap1 mRNA [1]; 5 μM) | human Yap1 mRNA expression (Yap1 mRNA [2]; 0.04 μM) | human Yap1 mRNA expression (Yap1 mRNA [2]; 0.2 μM) | human Yap1 mRNA expression (Yap1 mRNA [2]; 1 μM) | human Yap1 mRNA expression (Yap1 mRNA [2]; 5 μM) | Antiproliferative effect (cell proliferation, luminescence) (BICR-22 cells; 0.04 μM) | Antiproliferative effect (cell proliferation, luminescence) (BICR-22 cells; 0.2 μM) | Antiproliferative effect (cell proliferation, luminescence) (BICR-22 cells; 1 μM) | Antiproliferative effect (cell proliferation, luminescence) (BICR-22 cells; 5 μM) | human Yap1 mRNA expression (Yap1 mRNA [3]; 0.04 μM) | human Yap1 mRNA expression (Yap1 mRNA [3]; 0.2 μM) | human Yap1 mRNA expression (Yap1 mRNA [3]; 1 μM) | human Yap1 mRNA expression (Yap1 mRNA [3]; 5 μM) | further results
1 | CGCCGATAAGGTACAC (cEt gapmer, phosphorothioate backbone, further chemistry not given here) [ION 792169, reference compound] | 89 % UTC | 97 % UTC | 91 % UTC | 80 % UTC | 98 % UTC | 112 % UTC | 111 % UTC | 106 % UTC | 99 % UTC | 98 % UTC | 98 % UTC | 98 % UTC | 97 % UTC | 95 % UTC | 82 % UTC | 65 % UTC | 106 % UTC | 106 % UTC | 91 % UTC | 85 % UTC | Antiproliferative effect (cell proliferation, luminescence) (Detroit-562 cells; 0.04 μM): 99 % UTC; Antiproliferative effect (cell proliferation, luminescence) (Detroit-562 cells; 0.2 μM): 106 % UTC; Antiproliferative effect (cell proliferation, luminescence) (Detroit-562 cells; 1 μM): 100 % UTC; Antiproliferative effect (cell proliferation, luminescence) (Detroit-562 cells; 5 μM): 79 % UTC; Antiproliferative effect (cell proliferation, luminescence) (SCC-4 cells; 0.04 μM): 125 % UTC; Antiproliferative effect (cell proliferation, luminescence) (SCC-4 cells; 0.2 μM): 169 % UTC; Antiproliferative effect (cell proliferation, luminescence) (SCC-4 cells; 1 μM): 142 % UTC; Antiproliferative effect (cell proliferation, luminescence) (SCC-4 cells; 5 μM): 136 % UTC; human Yap1 mRNA expression (Yap1 mRNA [4]; 0.04 μM): 106 % UTC; human Yap1 mRNA expression (Yap1 mRNA [4]; 0.2 μM): 106 % UTC; human Yap1 mRNA expression (Yap1 mRNA [4]; 1 μM): 111 % UTC; human Yap1 mRNA expression (Yap1 mRNA [4]; 5 μM): 102 % UTC
2 | 715487 (kA*kT*kT*dA*d[5mC]*dT*dT*d[5mC]*dA*dT*dA*dG*d[5mC]*kT*kT*kA) [compound 715487] | 91 % UTC | 86 % UTC | 65 % UTC | 42 % UTC | 104 % UTC | 83 % UTC | 40 % UTC | 12 % UTC | 82 % UTC | 45 % UTC | 23 % UTC | 13 % UTC | 70 % UTC | 56 % UTC | 28 % UTC | 22 % UTC | 81 % UTC | 41 % UTC | 12 % UTC | 6 % UTC | Antiproliferative effect (cell proliferation, luminescence) (Detroit-562 cells; 0.04 μM): 92 % UTC; Antiproliferative effect (cell proliferation, luminescence) (Detroit-562 cells; 0.2 μM): 84 % UTC; Antiproliferative effect (cell proliferation, luminescence) (Detroit-562 cells; 1 μM): 71 % UTC; Antiproliferative effect (cell proliferation, luminescence) (Detroit-562 cells; 5 μM): 52 % UTC; Antiproliferative effect (cell proliferation, luminescence) (SCC-4 cells; 0.04 μM): 158 % UTC; Antiproliferative effect (cell proliferation, luminescence) (SCC-4 cells; 0.2 μM): 121 % UTC; Antiproliferative effect (cell proliferation, luminescence) (SCC-4 cells; 1 μM): 106 % UTC; Antiproliferative effect (cell proliferation, luminescence) (SCC-4 cells; 5 μM): 69 % UTC; human Yap1 mRNA expression (Yap1 mRNA [4]; 0.04 μM): 62 % UTC; human Yap1 mRNA expression (Yap1 mRNA [4]; 0.2 μM): 26 % UTC; human Yap1 mRNA expression (Yap1 mRNA [4]; 1 μM): 9 % UTC; human Yap1 mRNA expression (Yap1 mRNA [4]; 5 μM): 4 % UTC
3 | 1198440 (AAGTGTATGTCAGAAG; cEt, 2'-MOE, 5-methylcytosine, phosphorothioate modifications, further chemistry not given here) [compound 1198440] | 87 % UTC | 66 % UTC | 36 % UTC | 18 % UTC | 89 % UTC | 53 % UTC | 18 % UTC | 5 % UTC | 44 % UTC | 14 % UTC | 4 % UTC | 4 % UTC | 55 % UTC | 37 % UTC | 29 % UTC | 19 % UTC | 43 % UTC | 14 % UTC | 5 % UTC | 5 % UTC | Antiproliferative effect (cell proliferation, luminescence) (Detroit-562 cells; 0.04 μM): 84 % UTC; Antiproliferative effect (cell proliferation, luminescence) (Detroit-562 cells; 0.2 μM): 67 % UTC; Antiproliferative effect (cell proliferation, luminescence) (Detroit-562 cells; 1 μM): 59 % UTC; Antiproliferative effect (cell proliferation, luminescence) (Detroit-562 cells; 5 μM): 45 % UTC; Antiproliferative effect (cell proliferation, luminescence) (SCC-4 cells; 0.04 μM): 82 % UTC; Antiproliferative effect (cell proliferation, luminescence) (SCC-4 cells; 0.2 μM): 60 % UTC; Antiproliferative effect (cell proliferation, luminescence) (SCC-4 cells; 1 μM): 21 % UTC; Antiproliferative effect (cell proliferation, luminescence) (SCC-4 cells; 5 μM): 11 % UTC; human Yap1 mRNA expression (Yap1 mRNA [4]; 0.04 μM): 35 % UTC; human Yap1 mRNA expression (Yap1 mRNA [4]; 0.2 μM): 12 % UTC; human Yap1 mRNA expression (Yap1 mRNA [4]; 1 μM): 3 % UTC; human Yap1 mRNA expression (Yap1 mRNA [4]; 5 μM): 2 % UTC
